Assay results taken from patent US3988308A, “(Tyr^3, Tyr^14)-SRIF and intermediates” (American Home Products Corporation, priority 1974, dated 1976).
No end group written: not given here.

Experiments:
[1] = test system: growth hormone; assay: in vivo activity: plasma growth hormone by radioimmunoassay in nembutal-treated rats; conditions: 500 μg in PEG 400/water (1 ml) injected; rats 200-240 g; nembutal 50 mg/kg i.p. at 1 h 40 min; killed 20 min later; 19 treated rats; control average 117.9 ± 13.6
Description: (§1) The growth hormone inhibiting activity of the compound of Example 3 was determined by radioimmunoassay in a rat pituitary cell culture system as described by Vale et al, Endocrinology 91, pp 562 (1972) and Grant et al, Biochemical and Biophysical Research Communications 51, pp 100-106 (1973). The compound of Example 3 was tested at 10 ng/ml, 100 ng/ml and 1000ng/ml and was active at these concentrations in inhibiting growth hormone release. The in vivo activity of the compound of Example 3 was determined by dissolving 500 μg of this compound in a mixture of polyethylene glycol (PEG 400) and water (1 ml) and the mixture was injected in rats weighing 200-240 g. Control rats were injected with 80% PEG 400. One hour and forty minutes later the rats were injected i.p. with nembutal at 50 mg/kg. Twenty minutes after the nembutal injection the rats were killed and their blood plasmas were assayed for growth hormone by radioimmunoassay.
The average of 19 treated rats was 80.1 ± 9.0 × 10^-^9 g GH/ml and the average of 11 control rats was 117.9 ± 13.6 × 10^^-9 g GH/ml.

[2] = test system: growth hormone release in rat pituitary cell culture; assay: growth hormone inhibiting activity by radioimmunoassay in a rat pituitary cell culture system; format: cell-based; conditions: tested at 10 ng/ml, 100 ng/ml and 1000ng/ml
Description: as §1

[3] = test system: growth hormone (GH); conditions: background; Brazeau et al., Science 179 (1973); U.S. Pat. No. 3,842,066; cited from earlier work

Row | Compound | blood plasma growth hormone, average of treated rats [1] | inhibiting growth hormone release [2] | inhibition of secretion/release of growth hormone (somatotropin) [3]
1 | AGYKNFFWKTFTSY [Example 3, L-alanylglycyl-L-tyrosyl-L-lysyl-L-asparaginyl-L-phenylalanyl-L-phenylalanyl-L-tryptophyl-L-lysyl-L-threonyl-L-phenylalanyl-L-threonyl-L-seryl-L-tyrosine] | 80.1 ± 9.0 × 10^-9 g GH/ml | active | 
2 | C[C@H](N)C(=O)NCC(=O)N[C@H]1CSSC[C@@H](C(=O)O)NC(=O)[C@H](CO)NC(=O)[C@H]([C@@H](C)O)NC(=O)[C@H](Cc2ccccc2)NC(=O)[C@H]([C@@H](C)O)NC(=O)[C@H](CCCCN)NC(=O)[C@H](Cc2c[nH]c3ccccc23)NC(=O)[C@H](Cc2ccccc2)NC(=O)[C@H](Cc2ccccc2)NC(=O)[C@H](CC(N)=O)NC(=O)[C@H](CCCCN)NC1=O [Somatostatin] |  |  | inhibit the secretion of the hormone somatotropin
3 | (Ala^3,Ala^14)-SRIF: somatostatin analog described in U.S. Pat. No. 3,842,066 (AGAKNFFWKTFTSA; Somatostatin-14; UniProt P61278 103-116, looked up, variant C3A C14A) |  |  | inhibiting the release of growth hormone
4 | H-Ala-Gly-Cys-Lys-Asn-Phe-Phe-Trp-Lys-Thr-Phe-Thr-Ser-Cys-OH (H-AGCKNFFWKTFTSC-OH; ends and bridges not checked) [linear form of somatostatin, synthesized by solid phase methodology] |  |  | same biological activity as the somatostatin obtained from a natural source
